Experimental data as given in ChEMBL document CHEMBL3044915, “Synthesis and Insecticidal Activity of N-(4-Aryloxybenzyl)-pyrazolecarboxamide Derivatives” (1996).

Experiments:
Type in all cases: functional
[1] = system: Nephotettix cincticeps; assay: Insecticidal activity against green rice Nephotettix cincticeps (green rice leafhopper) third-instar larvae assessed as mortality at 12.5 ppm applied through spray measured after 4 days; details: 96 h
[2] = system: Nephotettix cincticeps; assay: Insecticidal activity against green rice Nephotettix cincticeps (green rice leafhopper) third-instar larvae assessed as mortality at 50 ppm applied through spray measured after 4 days; details: 96 h
[3] = system: Nephotettix cincticeps; assay: Insecticidal activity against green rice Nephotettix cincticeps (green rice leafhopper) third-instar larvae assessed as mortality at 0.8 ppm applied through spray measured after 4 days; details: for mortality at 0.8 ppm: Nephotettix cincticeps, 96 h
[4] = system: Nephotettix cincticeps; assay: Insecticidal activity against green rice Nephotettix cincticeps (green rice leafhopper) third-instar larvae assessed as mortality at 3.1 ppm applied through spray measured after 4 days; details: for mortality at 3.1 ppm: Nephotettix cincticeps, 96 h
[5] = system: Tetranychus urticae; assay: Insecticidal activity against Tetranychus urticae (two-spotted spider mite) assessed as mortality at 3.1 ppm
[6] = system: Tetranychus urticae; assay: Insecticidal activity against Tetranychus urticae (two-spotted spider mite) assessed as mortality at 12.5 ppm
[7] = system: Plutella xylostella; assay: Insecticidal activity against Plutella xylostella (diamondback moth) third-instar larvae in compound treated cabbage leaf assessed as mortality at 0.8 ppm measured after 4 days; details: 96 h
[8] = system: Plutella xylostella; assay: Insecticidal activity against Plutella xylostella (diamondback moth) third-instar larvae in compound treated cabbage leaf assessed as mortality at 3.1 ppm measured after 4 days; details: 96 h
[9] = system: Plutella xylostella; assay: Insecticidal activity against Plutella xylostella (diamondback moth) third-instar larvae in compound treated cabbage leaf assessed as mortality at 12.5 ppm measured after 4 days; details: 96 h
[10] = system: Myzus persicae; assay: Insecticidal activity against Myzus persicae (green peach aphid) assessed as mortality at 0.8 ppm measured after 4 days; details: 96 h
[11] = system: Myzus persicae; assay: Insecticidal activity against Myzus persicae (green peach aphid) assessed as mortality at 3.1 ppm measured after 4 days; details: 96 h
[12] = system: Myzus persicae; assay: Insecticidal activity against Myzus persicae (green peach aphid) assessed as mortality at 12.5 ppm measured after 4 days; details: 96 h
[13] = system: Nilaparvata lugens; assay: Insecticidal activity against Nilaparvata lugens (brown planthopper) third-instar larvae assessed as mortality at 0.8 ppm applied through spray measured after 5 days; details: 120 h
[14] = system: Nilaparvata lugens; assay: Insecticidal activity against Nilaparvata lugens (brown planthopper) third-instar larvae assessed as mortality at 3.1 ppm applied through spray measured after 5 days; details: 120 h
[15] = system: Nilaparvata lugens; assay: Insecticidal activity against Nilaparvata lugens (brown planthopper) third-instar larvae assessed as mortality at 12.5 ppm applied through spray measured after 5 days; details: 120 h

Row | Structure (SMILES) | mortality at 12.5 ppm [1] | mortality at 50 ppm [2] | mortality at 3.1 ppm [4] | also measured
1 | CCc1nn(C)c(C(=O)NCc2ccc(Oc3ccccc3)cc2)c1Cl | 30% | 100% | – | –
2 | CC1CCc2c1nn(C)c2C(=O)NC(C)c1ccc(Oc2ccc(C(F)(F)F)cc2)cc1 (single isomer, unassigned; diastereomer 2) | 100% | 100% | 80% | mortality at 0.8 ppm [3]: 0%
3 | CSc1ccc(Oc2ccc(CNC(=O)c3c4c(nn3C)C(C)CC4)cc2)cc1 (centres undefined) | 100% | – | 80% | mortality at 3.1 ppm [5]: 80%; mortality at 12.5 ppm [6]: 100%; mortality at 0.8 ppm [7]: 0%; mortality at 3.1 ppm [8]: 80%; mortality at 12.5 ppm [9]: 100%; mortality at 0.8 ppm [10]: 0%; mortality at 3.1 ppm [11]: 100%; mortality at 12.5 ppm [12]: 100%; mortality at 0.8 ppm [13]: 30%; mortality at 3.1 ppm [14]: 30%; mortality at 12.5 ppm [15]: 80%; mortality at 0.8 ppm [3]: 30%
4 | CCc1nn(C)c(C(=O)NCc2ccc(Oc3ccc(SC(C)C)cc3)cc2)c1Cl | 30% | 100% | 30% | –
5 | CCc1nn(C)c(C(=O)NCc2ccc(Oc3ccc([N+](=O)[O-])cc3)cc2)c1Cl | 100% | 100% | 100% | –
6 | CCc1nn(C)c(C(=O)NCc2ccc(Oc3ccc(C(F)(F)F)cc3)cc2)c1Br | 100% | 100% | 30% | mortality at 0.8 ppm [3]: 30%
7 | CCc1nn(C)c(C(=O)NCc2ccc(Oc3ccc(OC(C)C)cc3)cc2)c1Cl | 30% | 80% | 0% | –
8 | CCc1nn(C)c(C(=O)NCc2ccc(C(C)(C)C)cc2)c1Cl [TEBUFENPYRAD] | 0% | – | – | mortality at 3.1 ppm [5]: 100%; mortality at 12.5 ppm [6]: 100%; mortality at 12.5 ppm [9]: 0%; mortality at 12.5 ppm [12]: 30%; mortality at 12.5 ppm [15]: 0%
9 | CC1CCc2c1nn(C)c2C(=O)NCc1ccc(Oc2ccc(C(F)(F)F)cc2)cc1 (single isomer, unassigned; (-)) | 100% | 100% | – | mortality [3]: 80%; mortality [4]: 100%
10 | CCC1CCc2c1nn(C)c2C(=O)NCc1ccc(Oc2ccc(C(F)(F)F)cc2)cc1 (centres undefined) | 100% | 100% | 30% | mortality at 0.8 ppm [3]: 0%
11 | CC1CCc2c1nn(C)c2C(=O)NCc1ccc(Oc2ccc(C(F)(F)F)cc2)cc1 (single isomer, unassigned; (+)) | – | – | – | mortality [4]: 30%
12 | CCSc1ccc(Oc2ccc(CNC(=O)c3c(Cl)c(CC)nn3C)cc2)cc1 | 80% | 100% | 30% | –
13 | CCc1nn(C)c(C(=O)NCc2ccc(Oc3ccc(C(C)C)cc3)cc2)c1Cl | 30% | 80% | – | –
14 | CC1CCc2c1nn(C)c2C(=O)NCc1ccc(Oc2ccc(C(F)(F)F)cc2)cc1 (racemic) | – | – | – | mortality at 3.1 ppm [5]: 100%; mortality at 12.5 ppm [6]: 100%; mortality at 0.8 ppm [7]: 0%; mortality at 3.1 ppm [8]: 80%; mortality at 12.5 ppm [9]: 100%; mortality at 0.8 ppm [10]: 100%; mortality at 3.1 ppm [11]: 100%; mortality at 12.5 ppm [12]: 100%; mortality at 0.8 ppm [13]: 100%; mortality at 3.1 ppm [14]: 100%; mortality at 12.5 ppm [15]: 100%; mortality [3]: 30%
15 | CCc1nn(C)c(C(=O)NCc2ccc(Oc3ccc([S+](C)[O-])cc3)cc2)c1Cl (centres undefined) | 100% | 100% | 30% | –
16 | Cc1nn(C)c(C(=O)NCc2ccc(Oc3ccc(C(F)(F)F)cc3)cc2)c1Cl | 80% | 100% | 80% | mortality at 0.8 ppm [3]: 30%
17 | CC1CCc2c1nn(C)c2C(=O)NCc1ccc(Oc2ccc([N+](=O)[O-])cc2)cc1 (centres undefined) | 100% | – | 100% | mortality at 3.1 ppm [5]: 30%; mortality at 12.5 ppm [6]: 80%; mortality at 0.8 ppm [7]: 0%; mortality at 3.1 ppm [8]: 100%; mortality at 12.5 ppm [9]: 100%; mortality at 0.8 ppm [10]: 30%; mortality at 3.1 ppm [11]: 100%; mortality at 12.5 ppm [12]: 100%; mortality at 0.8 ppm [13]: 0%; mortality at 3.1 ppm [14]: 80%; mortality at 12.5 ppm [15]: 80%; mortality at 0.8 ppm [3]: 30%
18 | CC1CCc2c1nn(C)c2C(=O)NCc1ccc(C(C)(C)C)cc1 (centres undefined) | 30% | – | – | mortality at 3.1 ppm [5]: 100%; mortality at 12.5 ppm [6]: 100%; mortality at 12.5 ppm [9]: 0%; mortality at 12.5 ppm [12]: 0%; mortality at 12.5 ppm [15]: 0%
19 | Cn1nc2c(c1C(=O)NCc1ccc(Oc3ccc(C(F)(F)F)cc3)cc1)CCC2 | 100% | 100% | 100% | mortality at 0.8 ppm [3]: 0%
20 | CCc1nn(C)c(C(=O)NCc2ccc(Oc3ccc(C)cc3)cc2)c1Cl [TOLFENPYRAD] | 100% | 100% | 30% | –

Row | Structure (SMILES) | mortality at 12.5 ppm [1] | mortality at 50 ppm [2] | mortality at 3.1 ppm [4] | also measured
21 | CCc1nn(C)c(C(=O)NCc2ccc(Oc3ccc(Cl)cc3)cc2)c1Cl | 80% | 100% | 80% | –
22 | CCc1nn(C)c(C(=O)NCc2ccc(Oc3ccc(OCC(F)(F)F)cc3)cc2)c1Cl | 30% | 100% | – | –
23 | CCc1nn(C)c(C(=O)NCc2ccc(Oc3ccc(SC)cc3)cc2)c1Cl | 100% | 100% | 80% | –
24 | CC1CCc2c1nn(C)c2C(=O)NC(C)(C)c1ccc(Oc2ccc(C(F)(F)F)cc2)cc1 (centres undefined) | – | 0% | – | –
25 | CCc1nn(C)c(C(=O)NCc2ccc(Oc3ccc(OC(F)F)cc3)cc2)c1Cl | 100% | 100% | 80% | –
26 | CCc1ccc(Oc2ccc(CNC(=O)c3c(Cl)c(CC)nn3C)cc2)cc1 | 80% | 100% | 30% | –
27 | CCc1nn(C)c(C(=O)NCc2ccc(Oc3ccc(C(F)(F)F)cc3)cc2)c1Cl | 100% | 100% | 30% | –
28 | Cn1nc2c(c1C(=O)NCc1ccc(Oc3ccc(C(F)(F)F)cc3)cc1)CCCC2 | 80% | 100% | 80% | mortality at 0.8 ppm [3]: 0%
29 | CC(C)c1nn(C)c(C(=O)NCc2ccc(Oc3ccc(C(F)(F)F)cc3)cc2)c1Cl | 80% | 80% | 30% | –
30 | CCc1nn(C)c(C(=O)NCc2ccc(Oc3ccc(OC)cc3)cc2)c1Cl | 100% | 100% | 30% | –
31 | CCc1nn(C)c(C(=O)NCc2ccc(Oc3ccc(C(F)F)cc3)cc2)c1Cl | 100% | 100% | 100% | –
32 | Cn1ncc(Cl)c1C(=O)NCc1ccc(Oc2ccc(C(F)(F)F)cc2)cc1 | 80% | 100% | 30% | –
33 | CCc1cc(C(=O)NCc2ccc(Oc3ccc(C(F)(F)F)cc3)cc2)n(C)n1 | 100% | 100% | 30% | –
34 | CCc1nn(C)c(C(=O)NCc2ccc(Oc3ccc(S(C)(=O)=O)cc3)cc2)c1Cl | 100% | 100% | 30% | –
35 | CC1CCCc2c1nn(C)c2C(=O)NCc1ccc(Oc2ccc(C(F)(F)F)cc2)cc1 (centres undefined) | 100% | 100% | 0% | mortality at 0.8 ppm [3]: 0%
36 | CC1CCc2c1nn(C)c2C(=O)NCc1ccc(Oc2ccc(C#N)cc2)cc1 (centres undefined) | 30% | – | 0% | mortality at 3.1 ppm [5]: 100%; mortality at 12.5 ppm [6]: 100%; mortality at 0.8 ppm [7]: 30%; mortality at 3.1 ppm [8]: 100%; mortality at 12.5 ppm [9]: 100%; mortality at 0.8 ppm [10]: 0%; mortality at 3.1 ppm [11]: 80%; mortality at 12.5 ppm [12]: 100%; mortality at 0.8 ppm [13]: 80%; mortality at 3.1 ppm [14]: 80%; mortality at 12.5 ppm [15]: 100%
37 | CCc1nn(C)c(C(=O)NCc2ccc(Oc3ccc(C(F)(F)F)cc3)cc2)c1F | 100% | 100% | 30% | mortality at 0.8 ppm [3]: 0%
38 | CCc1nn(C)c(C(=O)NCc2ccc(Oc3ccc(CC(C)C)cc3)cc2)c1Cl | – | 0% | – | –
39 | CCc1nn(C)c(C(=O)NCc2ccc(Oc3ccc(C#N)cc3)cc2)c1Cl | 100% | 100% | 0% | –
